Test results published in patent US9814724B2, “Antitumor effect potentiator and antitumor agent” (TAIHO PHARMACEUTICAL CO., LTD., priority 2003, dated 2017).

Tests used:
[1] = test system: 5-FU degradation; details: compared with uracil; cited from earlier work
[2] = test system: human colon cancer cell line KM20C; experiment: Antitumor effect on subcutaneously implanted KM20C tumor in nude mice, 9-day oral dosing (Example 1); type: in vivo, male nude mice BALB/c-nu/nu; details: folinic acid 20.0 mg/kg/day (given as calcium folinate), alone or with tegafur+gimeracil+oteracil potassium 8.3+2.4+8.1 mg/kg/day or tegafur+uracil 20.0+44.8 mg/kg/day, oral once a day for 9 days, 10 days after grouping
Protocol: The ratio of the tumor volume 10 days after grouping to the tumor volume upon grouping was calculated to obtain a relative tumor volume. The tumor growth inhibition ratio (%) was determined using the relative tumor volumes of the drug-administered groups and the control group.

[3] = test system: human colon cancer cell line Colon 38; experiment: Antitumor effect on subcutaneously implanted Colon 38 tumor in mice, 9-day oral dosing (Example 2); type: in vivo, male mice C57BL/6; details: folinic acid 40.0 mg/kg/day (given as calcium folinate), alone or with tegafur+gimeracil+oteracil potassium 8.7+2.5+8.5 mg/kg/day or tegafur+uracil 15.1+33.8 mg/kg/day, oral once a day for 9 days; 12 days after grouping, vs control group
Protocol: (§1) The ratio of the tumor volume 12 days after grouping to the tumor volume upon grouping was calculated to obtain a relative tumor volume. The tumor growth inhibition ratio (%) was determined using the relative tumor volumes of the drug-administered groups and the control group.

[4] = as above; type: in vivo, male mice C57BL/6; details: folinic acid 40.0 mg/kg/day (given as calcium folinate), alone or with tegafur+gimeracil+oteracil potassium 8.7+2.5+8.5 mg/kg/day or tegafur+uracil 15.1+33.8 mg/kg/day, oral once a day for 9 days; 12 days after grouping
Protocol: as §1

[5] = Body weight change as parameter of whole-body toxicity (Example 2); details: folinic acid 40.0 mg/kg/day (given as calcium folinate), alone or with tegafur+gimeracil+oteracil potassium 8.7+2.5+8.5 mg/kg/day or tegafur+uracil 15.1+33.8 mg/kg/day, oral once a day for 9 days; 10 days after beginning of administration
Excerpt: A cubic fragment measuring about 2 mm in diameter of the human colon cancer cell line Colon 38 was subcutaneously implanted on the backs of male mice C57BL/6. When the average tumor volume (=major axis (mm)×minor axis (mm)^2) reached about 150 mm^3, the mice were divided into groups.
The following preparations each dissolved or suspended in a 0.5% hydroxypropylmethyl cellulose (HPMC) solution were orally administered to the mice once a day in amounts as shown in Table 2 for 9 consecutive days from the day after grouping: calcium folinate; a tegafur/gimeracil/oteracil potassium combined drug (molar ratio of tegafur:gimeracil:oteracil potassium=1:0.4:1); a combined drug containing the tegafur/gimeracil/oteracil potassium combined drug described above and calcium folinate; a tegafur/uracil combined drug (molar ratio of tegafur:uracil=1:4); and a combined drug containing the tegafur/uracil combined drug described above and calcium folinate.
(§2) The body weight change was calculated by subtracting the body weight of mice 10 days after the beginning of administration from the body weight of mice upon grouping and used as a parameter of whole-body toxicity of the pharmaceutical preparation.

[6] = test system: human colon cancer cell line KM20C; experiment: Effect of folinate dosage on the antitumor effect on implanted KM20C tumor in nude mice, 14-day oral dosing (Example 3); type: in vivo, male nude mice (BALB/cA-nu); details: for enhancement of the antitumor effect of the tegafur/gimeracil/oteracil potassium combined drug: KM20C
Protocol: The ratio of the tumor volume 15 days after grouping to the tumor volume upon grouping was calculated to obtain a relative tumor volume. The tumor growth inhibition ratio (%) was determined using the relative tumor volumes of the drug-administered groups and the control group.

[7] = Body weight change as parameter of whole-body toxicity (Example 3); details: folinic acid 20.0 mg/kg/day (as calcium folinate), alone or with tegafur+gimeracil+oteracil potassium 5.7+1.7+5.6 mg/kg/day, oral once a day for 14 days; 15 days after beginning of administration
Excerpt: A cubic fragment measuring about 2 mm in diameter of the human colon cancer cell line KM20C was subcutaneously implanted on the backs of male nude mice (BALB/cA-nu). When the average tumor volume (=major axis (mm)×minor axis (mm)^2) reached about 200 mm^3, the mice were divided into groups.
A combined drug containing a tegafur/gimeracil/oteracil potassium combined drug (molar ratio of tegafur:gimeracil oteracil potassium=1:0.4:1) and calcium folinate, dissolved or suspended in a 0.5% hydroxypropylmethyl cellulose (HPMC) solution was orally administered to the mice once a day in amounts as shown in Table 3 for 14 consecutive days from the day after grouping.
The body weight change was calculated by subtracting the body weight of mice 15 days after the beginning of administration from the body weight of mice upon grouping used as a parameter of whole-body toxicity of the pharmaceutical preparation. Although calcium folinate was used in the experiment, the dosage given in the table is that calculated as the amount of folinic acid.

[8] = Body weight change as parameter of whole-body toxicity (Example 1); details: folinic acid 20.0 mg/kg/day (given as calcium folinate), alone or with tegafur+gimeracil+oteracil potassium 8.3+2.4+8.1 mg/kg/day or tegafur+uracil 20.0+44.8 mg/kg/day, oral once a day for 9 days; 10 days after beginning of administration
Excerpt: A cubic fragment measuring about 2 mm in diameter of the human colon cancer cell line KM20C was subcutaneously implanted on the backs of male nude mice BALB/c-nu/nu. When the average tumor volume (=major axis (mm)×minor axis (mm)^2) reached about 200 mm^3, the mice were divided into groups.
The following preparations each dissolved or suspended in a 0.5% hydroxypropylmethyl cellulose (HPMC) solution were orally administered to the mice once a day in amounts as shown in Table 1 for 9 consecutive days from the day after grouping: calcium folinate; a tegafur/gimeracil/oteracil potassium combined drug (molar ratio of tegafur:gimeracil:oteracil potassium=1:0.4:1); a combined drug containing the tegafur/gimeracil/oteracil potassium combined drug described above and calcium folinate; a tegafur/uracil combined drug (molar ratio of tegafur:uracil=1:4); and a combined drug containing the tegafur/uracil combined drug described above and calcium folinate.
as §2

## Oc1cc(O)c(Cl)cn1 [gimeracil, 2,4-dihydroxy-5-chloropyridine]
[1]
  5-FU degradation inhibitory effect relative to that of uracil: about 200 times

## Nc1nc(=O)c2c([nH]1)NCC(CNc1ccc(C(=O)N[C@@H](CCC(=O)O)C(=O)O)cc1)N2C=O (mixture of isomers) [folinic acid]
[2]
  Relative tumor volume (Mean ± SD): 2.24
[2]; vs control group
  Tumor growth inhibition ratio (%): 6.1%
[3]
  Tumor growth inhibition ratio (%): 7.5%
[4]
  Relative tumor volume (Mean ± SD): 8.78
[5]
  Body weight change: 0.7 g
[6]; calcium folinate at the dose of 2.5 mg/kg/day
  enhancement of the antitumor effect of the tegafur/gimeracil/oteracil potassium combined drug: some enhancement
[6]; calcium folinate at the dose of 5 mg/kg/day
  enhancement of the antitumor effect of the tegafur/gimeracil/oteracil potassium combined drug: clear enhancement
[6]; folinic acid 20.0 mg/kg/day (as calcium folinate), alone or with tegafur+gimeracil+oteracil potassium 5.7+1.7+5.6 mg/kg/day, oral once a day for 14 days, 15 days after grouping
  Relative tumor volume (Mean ± SD): 4.50 ± 1.25 ^
[6]; folinic acid 20.0 mg/kg/day (as calcium folinate), alone or with tegafur+gimeracil+oteracil potassium 5.7+1.7+5.6 mg/kg/day, oral once a day for 14 days, 15 days after grouping, vs control group
  Tumor growth inhibition ratio (%): 5.4%
[7]
  Body weight change: -0.6 g
[8]
  Body weight change: -0.8 g
